We go through 19 molecules from PubChem BioAssay AID248 (DTP/NCI, 2004).

Values joined by “and” are separate entries in the source; they are usually repeats but may differ in a detail not shown here. Equal entries are not always repeated. Inconclusive results and toxic doses are left out.

In this test the test system is L1210 leukemia ip in BDF1 mice, survival T/C. Description: NCI In Vivo Anticancer Drug Screen. Data for tumor model L1210 Leukemia (intraperitoneal) in B6D2F1 (BDF1) mice. To be noted: endpoint: mean survival time, higher = longer survival. A digest of the protocol: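 Read-out is survival time, reported as the treated-group measurement over the vehicle-control measurement.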

[1] abbreviates: dose: 100.0 mg/kg/injection, schedule: Q01DX001 (ip), vehicle: other.
Setting [2] is: dose: 200.0 mg/kg/injection, schedule: Q01DX001 (ip), vehicle: other.
Where [3] appears, read: dose: 400.0 mg/kg/injection, schedule: Q01DX001 (ip), vehicle: other.
The mark [4] stands for this setting: dose: 100.0 mg/kg/injection, schedule: Q01DX001 (ip), vehicle: saline.
The mark [5] stands for this setting: dose: 200.0 mg/kg/injection, schedule: Q01DX001 (ip), vehicle: saline.
Where [6] appears, read: dose: 400.0 mg/kg/injection, schedule: Q01DX001 (ip), vehicle: saline.
[7] abbreviates: dose: 100.0 mg/kg/injection, schedule: Q01DX009 (ip), vehicle: Klucel (hydroxypropylcellulose) (HPC).
The mark [8] stands for this setting: dose: 200.0 mg/kg/injection, schedule: Q01DX009 (ip), vehicle: Klucel (hydroxypropylcellulose) (HPC).
Setting [9] is: dose: 400.0 mg/kg/injection, schedule: Q01DX009 (ip), vehicle: Klucel (hydroxypropylcellulose) (HPC).
Setting [10] is: dose: 12.5 mg/kg/injection, schedule: Q01DX009 (ip), vehicle: saline with Tween-80.
The mark [11] stands for this setting: dose: 25.0 mg/kg/injection, schedule: Q01DX009 (ip), vehicle: saline with Tween-80.
[12] abbreviates: dose: 100.0 mg/kg/injection, schedule: Q04DX003 (ip), vehicle: saline with Tween-80.
The mark [13] stands for this setting: dose: 200.0 mg/kg/injection, schedule: Q04DX003 (ip), vehicle: saline with Tween-80.
The mark [14] stands for this setting: dose: 100.0 mg/kg/injection, schedule: Q04DX003 (ip), vehicle: Klucel (hydroxypropylcellulose) (HPC).
The mark [15] stands for this setting: dose: 200.0 mg/kg/injection, schedule: Q04DX003 (ip), vehicle: Klucel (hydroxypropylcellulose) (HPC).
[16] abbreviates: dose: 400.0 mg/kg/injection, schedule: Q04DX003 (ip), vehicle: Klucel (hydroxypropylcellulose) (HPC).
Where [17] appears, read: dose: 25.0 mg/kg/injection, schedule: Q04DX003 (ip), vehicle: Klucel (hydroxypropylcellulose) (HPC).
The mark [18] stands for this setting: dose: 50.0 mg/kg/injection, schedule: Q04DX003 (ip), vehicle: Klucel (hydroxypropylcellulose) (HPC).

Turning to `O=C(NC(Cc1ccccc1)C(=O)Oc1cc(Cl)c(Cl)cc1Cl)OCc1ccccc1` (configuration not stated), the T/C was 91 % of control under setting [1], 91 % of control under setting [2] and 97 % of control under setting [3].

As for `O=C(O)/C=C\C=C\c1ccccc1`, the T/C is 89 % of control under setting [4], 94 % of control under setting [5] and 96 % of control under setting [6].

Take `NC(=O)N/N=C/c1ccccc1`: the T/C under setting [7] is 96 % of control; the T/C (dose: 100.0 mg/kg/injection, schedule: Q04DX002 (ip), vehicle: Klucel (hydroxypropylcellulose) (HPC)) is 89 % of control; the T/C under setting [8] was 96 % of control; the T/C (dose: 200.0 mg/kg/injection, schedule: Q04DX002 (ip), vehicle: Klucel (hydroxypropylcellulose) (HPC)) is 100 % of control; the T/C under setting [9] was 111 % of control; the T/C (dose: 400.0 mg/kg/injection, schedule: Q04DX002 (ip), vehicle: Klucel (hydroxypropylcellulose) (HPC)) is 104 % of control.

For `Cc1ccc(C)c(N=C=O)c1`, the T/C (dose: 6.25 mg/kg/injection, schedule: Q01DX009 (ip), vehicle: saline with Tween-80) is 98 % of control; the T/C under setting [10] was 96 % of control; the T/C under setting [11] is 93 % of control; the T/C under setting [12] was 104 % of control; the T/C under setting [13] was 109 % of control.

As for `N#C/C(=C\c1cccc(N)c1)c1ccccc1`, the T/C was 100 % of control (dose: 100.0 mg/kg/injection, schedule: Q01DX001 (ip), vehicle: saline with Tween-80) and 95 % of control (dose: 200.0 mg/kg/injection, schedule: Q01DX001 (ip), vehicle: saline with Tween-80).

In the case of `CN(C)CCCN1CCC2(CCCC(C(F)(F)F)C2)CC1` (configuration not stated), the T/C (dose: 50.0 mg/kg/injection, schedule: Q01DX001 (ip), vehicle: saline) is 104 % of control; the T/C under setting [4] is 101 % of control; the T/C under setting [5] was 104 % of control.

Regarding `CC(=O)SCC(C)SC(C)=O` (configuration not stated), the T/C reads like this: (dose: 12.5 mg/kg/injection, schedule: Q04DX002 (ip), vehicle: saline with Tween-80) 93 % of control; (dose: 25.0 mg/kg/injection, schedule: Q04DX002 (ip), vehicle: saline with Tween-80) 98 % of control; (dose: 50.0 mg/kg/injection, schedule: Q04DX002 (ip), vehicle: saline with Tween-80) 93 % of control.

Turning to `O=[N+]([O-])c1cccc(S(=O)(=O)OCn2ncc3ccc([N+](=O)[O-])cc32)c1`, the T/C reads like this: (dose: 5.0 mg/kg/injection, schedule: Q01DX001 (ip), vehicle: saline) 94 % of control; (dose: 10.0 mg/kg/injection, schedule: Q01DX001 (ip), vehicle: saline) 100 % of control; (dose: 20.0 mg/kg/injection, schedule: Q01DX001 (ip), vehicle: saline) 100 % of control; (dose: 40.0 mg/kg/injection, schedule: Q01DX001 (ip), vehicle: saline) 97 % of control.

Take `Cc1ccc(S(=O)(=O)N/N=C/c2ccc([N+](=O)[O-])s2)cc1`: the T/C by setting is: under setting [14], 96 % of control; under setting [15], 94 % of control; under setting [16], 96 % of control.

As to `CC(=O)OC1CC2CC(C1C)C2(C)C` (configuration not stated), the T/C by setting is: under setting [10], 105 % of control; under setting [11], 91 % of control; (dose: 50.0 mg/kg/injection, schedule: Q01DX009 (ip), vehicle: saline with Tween-80) 100 % of control.

As for `Fc1ccc(Cl)c2cccnc12`, the T/C (dose: 75.0 mg/kg/injection, schedule: Q01DX001 (ip), vehicle: saline) was 105 % of control and the T/C (dose: 150.0 mg/kg/injection, schedule: Q01DX001 (ip), vehicle: saline) was 102 % of control.

`CCc1ccc(NC(=O)N(CCCl)N=O)cc1`: the T/C (dose: 10.0 mg/kg/injection, schedule: Q01DX009 (ip), vehicle: Klucel (hydroxypropylcellulose) (HPC)) was 168 % of control and 175 % of control; the T/C (dose: 20.0 mg/kg/injection, schedule: Q01DX009 (ip), vehicle: Klucel (hydroxypropylcellulose) (HPC)) was 157 % of control and 172 % of control; the T/C under setting [17] was 124 % of control; the T/C (dose: 40.0 mg/kg/injection, schedule: Q01DX009 (ip), vehicle: Klucel (hydroxypropylcellulose) (HPC)) was 88 % of control; the T/C under setting [18] is 150 % of control and 159 % of control; the T/C (dose: 100.0 mg/kg/injection, schedule: Q01DX001 (ip), vehicle: carboxymethylcellulose (CMC)) was 101 % of control. Also, the T/C under setting [15] was 105 % of control.

`Clc1cc(Cl)c2nc(-c3ccc(Cl)c(Cl)c3)cc(C3CO3)c2c1` (configuration not stated): the T/C under setting [4] is 94 % of control, the T/C under setting [5] is 105 % of control and the T/C under setting [6] is 100 % of control.

For the molecule `CCCC1(C)COB(c2ccc(C)cc2)OC1`, the T/C is, setting by setting: (dose: 25.0 mg/kg/injection, schedule: Q01DX009 (ip), vehicle: Klucel (hydroxypropylcellulose) (HPC)) 102 % of control; (dose: 50.0 mg/kg/injection, schedule: Q01DX009 (ip), vehicle: Klucel (hydroxypropylcellulose) (HPC)) 105 % of control; under setting [18], 92 % of control; under setting [7], 114 % of control; under setting [14], 101 % of control; under setting [8], 122 % of control. Moreover, the T/C is 92 % of control under setting [15], 88 % of control under setting [9] and 95 % of control under setting [16].

As for `Cn1cc(C(C)(C(=O)O)c2cn(C)c3ccccc23)c2ccccc21`, the T/C is, setting by setting: under setting [4], 104 % of control; under setting [5], 102 % of control; under setting [6], 102 % of control.

As to `Cc1ccc(C(C)(Cl)/N=N\C(C)(Cl)c2ccc([N+](=O)[O-])cc2)cc1` (configuration not stated), the T/C reads like this: under setting [12], 90 % of control; under setting [13], 96 % of control; (dose: 400.0 mg/kg/injection, schedule: Q04DX003 (ip), vehicle: saline with Tween-80) 98 % of control.

`N#Cc1nc2c(nc1C#N)CCCC2`: the T/C runs as follows: (dose: 6.25 mg/kg/injection, schedule: Q04DX003 (ip), vehicle: Klucel (hydroxypropylcellulose) (HPC)) 98 % of control; (dose: 12.5 mg/kg/injection, schedule: Q04DX003 (ip), vehicle: Klucel (hydroxypropylcellulose) (HPC)) 95 % of control; (dose: 25.0 mg/kg/injection, schedule: Q01DX001 (ip), vehicle: Klucel (hydroxypropylcellulose) (HPC)) 96 % of control; under setting [17], 97 % of control and 102 % of control; (dose: 50.0 mg/kg/injection, schedule: Q01DX001 (ip), vehicle: Klucel (hydroxypropylcellulose) (HPC)) 105 % of control; (dose: 100.0 mg/kg/injection, schedule: Q01DX001 (ip), vehicle: Klucel (hydroxypropylcellulose) (HPC)) 104 % of control.

For the molecule `CS(=O)(=O)N(c1ccccc1)c1ccccc1N`, the T/C is, setting by setting: under setting [1], 94 % of control; under setting [2], 107 % of control; under setting [3], 88 % of control.

For the molecule `O=[N+]([O-])c1cccc(Oc2ncccc2[N+](=O)[O-])c1`, the T/C is 95 % of control under setting [7]; 105 % of control (dose: 100.0 mg/kg/injection, schedule: Q04DX003 (ip), vehicle: other); 102 % of control under setting [8]; 103 % of control (dose: 200.0 mg/kg/injection, schedule: Q04DX003 (ip), vehicle: other); 94 % of control under setting [9]; 100 % of control (dose: 400.0 mg/kg/injection, schedule: Q04DX003 (ip), vehicle: other).
